# Reference: patent US11339144B2 (Navitor Pharmaceuticals, Inc., priority 2017, dated 2022)
# Target: HA-GST-Rheb (GTP-γ-S loaded) activating mTORC1 (Homo sapiens (Human), UniProt Q15382)
# Assay: Rheb-dependent in vitro kinase assay (Rheb-IVK; LanthaScreen or Western readout)
# Type: biochemical
# Details: Rheb-dependent in vitro kinase assay; read-out: IVK IC50
# HA-GST-Rheb (GTP-γ-S loaded) activating mTORC1, sequence (Q15382 1-181): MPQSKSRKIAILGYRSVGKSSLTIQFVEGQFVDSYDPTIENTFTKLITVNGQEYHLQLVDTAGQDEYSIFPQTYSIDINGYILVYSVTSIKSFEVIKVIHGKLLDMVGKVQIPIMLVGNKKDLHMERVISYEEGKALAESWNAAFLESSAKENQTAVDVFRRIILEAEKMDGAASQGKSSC
row,Molecule,IC50 [µM]
1,CCn1c(CO)nc2cc(Cl)c(OCCc3ccccc3)cc21 [I-431],> 100
2,CCn1c(CO)nc2cc(OCc3ccccc3Cl)c(Cl)cc21 [I-432],> 100
3,CCn1c(CO)nc2cc(Cl)c(OCc3ccccc3Cl)cc21 [I-433],> 100
4,CCn1cnc2cc(Cl)c(OCc3ccccc3)cc21 [I-435],> 100
5,Nc1ncccc1COc1c(Cl)c(Cl)cc2[nH]c(CO)nc12 [I-436],> 100
6,Clc1cc2nc(-c3ncco3)n(Cc3cccc(-c4nn[nH]n4)c3)c2cc1Cl [I-438],> 100
7,N#CCc1nc2c(Oc3ccccc3)c(Cl)ccc2[nH]1 [I-441],> 100
8,CCn1c(CO)nc2cc(OCc3cccc(F)c3)c(Cl)cc21 [I-442],> 100
9,CCn1c(CO)nc2cc(Cl)c(OCc3cccc(F)c3)cc21 [I-443],> 100
10,CCn1c(CO)nc2cc(OCc3ccc(F)cc3)c(Cl)cc21 [I-444],> 100
11,CCn1c(CO)nc2cc(Cl)c(OCc3ccc(F)cc3)cc21 [I-445],> 100
12,O=C(O)c1cccc(Cn2c(-c3ncco3)nc3cc(Cl)c(Cl)cc32)c1 [I-446],> 100
13,NC(=O)c1cccc(Cn2c(-c3ncco3)nc3cc(Cl)c(Cl)cc32)c1 [I-447],> 100
14,CCn1c(CO)nc2cc(Cl)c(OCc3cccc(Cl)c3)cc21 [I-448],> 100
15,CCn1c(CO)nc2cc(OCc3ccc(Cl)cc3)c(Cl)cc21 [I-449],> 100
16,CCn1c(CO)nc2cc(Cl)c(OCc3ccc(Cl)cc3)cc21 [I-450],> 100
17,NC(=O)c1ccc(Cn2c(-c3ncco3)nc3cc(Cl)c(Cl)cc32)cc1 [I-451],> 100
18,O=C(O)c1ccc(Cn2c(-c3ncco3)nc3cc(Cl)c(Cl)cc32)cc1 [I-452],> 100
19,N#Cc1ccc(Cn2c(-c3ncco3)nc3cc(Cl)c(Cl)cc32)cc1 [I-453],> 100
20,CCn1c(CO)nc2cc(Cl)c(OCc3ccccc3F)cc21 [I-454],> 100
21,CCn1c(CO)nc2cc(Oc3ccccc3)c(Cl)cc21 [I-455],> 100
22,CCn1c(CO)nc2cc(Cl)c(Oc3ccccc3)cc21 [I-456],> 100
23,OCc1nc2cc(OCc3ccccc3)c(Cl)cc2n1CC(F)(F)F [I-457],> 100

row,Molecule,IC50 [µM]
1,OCc1nc2cc(Cl)c(OCc3ccccc3)cc2n1CC(F)(F)F [I-458],> 100
2,N#Cc1cccc(COc2c(Cl)c(Cl)cc3[nH]c(CO)nc23)c1 [I-459],> 100
3,OCc1nc2cc(Cl)c(Cl)c(OCC3CCNC3)c2[nH]1 (stereo not drawn) [I-460],> 100
4,CCn1c(CO)nc2cc(OCc3ccccc3F)c(Cl)cc21 [I-461],> 100
5,OCc1nc2cc(Cl)c(Cl)c(OCC3CCCCN3)c2[nH]1 (stereo not drawn) [I-462],> 100
6,N#Cc1cccc(Cn2c(-c3ncco3)nc3cc(Cl)c(Cl)cc32)c1 [I-463],> 100
7,Nc1cccc(COc2c(Cl)c(Cl)cc3nc(CO)[nH]c23)n1 [I-464],> 100
8,OCc1nc2cc(OCc3ccccc3)c(Cl)cc2n1Cc1ccccc1 [I-466],> 100
9,OCc1nc2cc(Cl)c(OCc3ccccc3)cc2n1Cc1ccccc1 [I-467],> 100
10,OCc1nc2c(OCC3CCCN3)c(Cl)c(Cl)cc2[nH]1 (stereo not drawn) [I-468],> 100
11,N#CCc1nc2c(OCc3ccccc3)c(Cl)ccc2[nH]1 [I-469],> 100
12,OCc1nc2c(Oc3ccccc3)cccc2[nH]1 [I-470],> 100
13,N#CCc1nc2c(Oc3ccccc3)cccc2[nH]1 [I-471],> 100
14,N#Cc1ccccc1COc1c(Cl)c(Cl)cc2[nH]c(CO)nc12 [I-472],> 100
15,N#CCc1nc2cc(OCc3ccccc3)c(Cl)cc2[nH]1 [I-473],> 100
16,NC(=O)Cn1c(CO)nc2cc(Cl)c(OCc3ccccc3)cc21 [I-476],> 100
17,Nc1nonc1-c1nc2cc(Cl)c(Cl)cc2[nH]1 [I-477],> 100
18,CCCn1c(CO)nc2cc(OCc3ccccc3)c(Cl)cc21 [I-479],> 100
19,CCCn1c(CO)nc2cc(Cl)c(OCc3ccccc3)cc21 [I-480],> 100
20,CCn1c(CO)nc2cc(OCc3ccccc3)c(Cl)cc21 [I-487],> 100
21,CCn1c(CO)nc2cc(Cl)c(OCc3ccccc3)cc21 [I-488],> 100
22,Nc1nonc1-c1nc2cc(Cl)c(Cl)cc2n1Cc1ccccc1 [I-491],> 100
23,"(4-(2-(2-aminopyridin-4-yl)ethoxy)-5,6-dichloro-1H-benzo[d]imidazol-2-yl)methanol [I-182]",> 100

# Next, values leading:
row,IC50 [µM],Molecule
1,> 100,CCn1c(CO)nc2cc(OCc3ccccc3)cc(Cl)c21 [I-412]
2,> 100,CCn1c(CO)nc2c(Cl)cc(OCc3ccccc3)cc21 [I-413]
3,> 100,CCOCc1nc2cc(OCc3ccccc3)cc(Cl)c2n1CC [I-414]
4,> 100,CCOCc1nc2c(Cl)cc(OCc3ccccc3)cc2n1CC [I-415]
5,> 100,CCn1c(CO)nc2cc(OCc3ccccc3)ccc21 [I-416]
6,> 100,CCn1c(CO)nc2ccc(OCc3ccccc3)cc21 [I-417]
7,100 to 300,"OCc1nc2c(Oc3ccccc3)c(Cl)ccc2[nH]1 [I-418, (5-chloro-4-phenoxy-1H-benzo[d]imidazol-2-yl)methanol]"
8,> 100,O=C1CCC(COc2c(Cl)c(Cl)cc3[nH]c(CO)nc23)N1 (stereo not drawn) [I-419]
9,> 100,Nc1ccnc(COc2c(Cl)c(Cl)cc3[nH]c(CO)nc23)n1 [I-420]
10,> 100,c1ccc(Oc2cccc3nc(-c4ncco4)n(Cc4ccc(-c5nn[nH]n5)cc4)c23)cc1 [I-422]
11,> 100,Nc1nccc(COc2c(Cl)c(Cl)cc3[nH]c(CO)nc23)n1 [I-423]
12,> 100,OCc1nc2c(OCc3ccnc(Cl)n3)c(Cl)c(Cl)cc2[nH]1 [I-424]
13,> 100,Cn1c(CO)nc2cc(Cl)c(OCc3ccccc3)cc21 [I-426]
14,100 to 300,"Clc1ccc2[nH]c(-c3ncco3)nc2c1Oc1ccccc1 [I-427, 2-(5-chloro-4-phenoxy-1H-benzo[d]imidazol-2-yl)oxazole]"
15,> 100,"OCc1nc2c(Br)cc(Oc3ccccc3)cc2[nH]1 [I-428, (4-bromo-6-phenoxy-1H-benzo[d]imidazol-2-yl)methanol]"
16,> 100,COc1ccc(Cn2cnc3c(Br)cc(Oc4ccccc4)cc32)cc1 [I-429]
17,> 100,CCn1c(CO)nc2cc(OCCc3ccccc3)c(Cl)cc21 [I-430]
18,100 to 300,"CCn1cnc2cc(OCc3ccccc3)c(Cl)cc21 [I-434, 5-(benzyloxy)-6-chloro-1-ethyl-1H-benzo[d]imidazole]"
19,100 to 300,"O=C1CCCC(COc2c(Cl)c(Cl)cc3[nH]c(CO)nc23)N1 (stereo not drawn) [I-465, 6-((5,6-dichloro-2-(hydroxymethyl)-1H-benzo[d]imidazol-4-yloxy)methyl)piperidin-2-one]"
20,300 to 800,"Clc1cc2nc(-c3cnon3)n(Cc3ccc(-c4nn[nH]n4)cc3)c2cc1Cl [I-474, 3-(1-(4-(2H-tetrazol-5-yl)benzyl)-5,6-dichloro-1H-benzo[d]imidazol-2-yl)-1,2,5-oxadiazole]"
21,100 to 300,"NC(=O)Cn1c(CO)nc2cc(OCc3ccccc3)c(Cl)cc21 [I-475, 2-(5-(benzyloxy)-6-chloro-2-(hydroxymethyl)-1H-benzo[d]imidazol-1-yl)acetamide]"
22,300 to 800,"OCc1nc2cc(OCc3cccc(Cl)c3)c(Cl)cc2[nH]1 [I-478, (5-chloro-6-(3-chlorobenzyloxy)-1H-benzo[d]imidazol-2-yl)methanol]"
23,100 to 300,"OCc1nc2cc(OCc3ccc(F)cc3)c(Cl)cc2[nH]1 [I-482, (6-chloro-5-(4-fluorobenzyloxy)-1H-benzo[d]imidazol-2-yl)methanol]"
24,300 to 800,"OCc1nc2cc(OCCc3ccccc3)c(Cl)cc2[nH]1 [I-483, (6-chloro-5-phenethoxy-1H-benzo[d]imidazol-2-yl)methanol]"
25,300 to 800,"OCc1nc2cc(OCc3ccccc3Cl)c(Cl)cc2[nH]1 [I-485, (5-chloro-6-(2-chlorobenzyloxy)-1H-benzo[d]imidazol-2-yl)methanol]"
26,10 to 100,"Nc1nonc1-c1nc2cc(Cl)c(Cl)cc2n1Cc1ccc(-c2nn[nH]n2)cc1 [I-490, 4-(1-(4-(2H-tetrazol-5-yl)benzyl)-5,6-dichloro-1H-benzo[d]imidazol-2-yl)-1,2,5-oxadiazol-3-amine]"
